From ChEMBL document CHEMBL1134403, “Structure-based approach for the discovery of bis-benzamidines as novel inhibitors of matriptase” (J Med Chem, 2001)

Tests used:
Prothrombin = Prothrombin (Homo sapiens, UniProt P00734); experiment: compound was tested for inhibitory activity against Thrombin
[1] = biological target: T1, Suppressor of tumorigenicity 14 protein (Homo sapiens, UniProt Q9Y5Y6); experiment: compound was tested for inhibitory activity against Matriptase
T1 sequence (Q9Y5Y6 whole entry): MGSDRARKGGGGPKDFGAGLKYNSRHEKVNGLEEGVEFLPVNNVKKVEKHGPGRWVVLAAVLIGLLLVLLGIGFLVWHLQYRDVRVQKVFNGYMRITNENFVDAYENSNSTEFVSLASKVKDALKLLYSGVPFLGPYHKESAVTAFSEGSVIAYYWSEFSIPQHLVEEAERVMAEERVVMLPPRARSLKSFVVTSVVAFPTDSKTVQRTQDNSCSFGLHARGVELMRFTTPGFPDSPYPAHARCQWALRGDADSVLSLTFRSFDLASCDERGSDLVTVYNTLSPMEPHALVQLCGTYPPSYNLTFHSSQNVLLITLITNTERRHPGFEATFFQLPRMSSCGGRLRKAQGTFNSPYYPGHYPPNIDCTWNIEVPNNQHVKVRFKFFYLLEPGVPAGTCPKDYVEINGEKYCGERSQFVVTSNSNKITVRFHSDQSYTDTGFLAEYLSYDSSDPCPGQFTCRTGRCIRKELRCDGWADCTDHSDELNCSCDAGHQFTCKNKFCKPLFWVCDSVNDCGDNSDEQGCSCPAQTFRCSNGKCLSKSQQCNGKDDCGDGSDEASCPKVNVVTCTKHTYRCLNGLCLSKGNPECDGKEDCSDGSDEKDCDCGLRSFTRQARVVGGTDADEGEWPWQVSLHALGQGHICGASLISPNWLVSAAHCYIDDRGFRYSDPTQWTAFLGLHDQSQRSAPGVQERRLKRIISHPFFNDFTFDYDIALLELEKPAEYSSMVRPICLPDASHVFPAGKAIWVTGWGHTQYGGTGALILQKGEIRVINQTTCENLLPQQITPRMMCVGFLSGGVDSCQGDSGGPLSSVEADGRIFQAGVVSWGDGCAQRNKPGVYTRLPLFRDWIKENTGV

Row | SMILES | Ki (Prothrombin) | Ki [1]
1 | N=C(N)c1ccc(OCCCCCCOc2ccc(C(=N)N)cc2I)cc1 | 796 nM | 
2 | N=C(N)c1ccc(Oc2ccc(Oc3ccc(C(=N)N)cc3)cc2)cc1 | 2670 nM | 
3 | N=C(N)c1ccc(CCc2ccc(C(=N)N)cc2)cc1 |  | > 10000 nM
4 | N=C(N)c1ccc(OCCCOc2ccc(C(=N)N)cc2Br)c(Br)c1 [DIBROMPROPAMIDINE] | 946 nM | 
5 | N=C(N)c1ccc(OCCCCCCOc2ccc(C(=N)N)cc2)cc1 [HEXAMIDINE] | 224 nM | 
